The subject of test [1] is HCT-116. The test is described as follows: Antiproliferative activity against human HCT-116 cells assessed as reduction in cell viability measured for 48 hrs by MTT assay. The test is classed as functional.
For test [2], the target named is T1, Androgen receptor (Homo sapiens) (UniProt P10275).
T1 sequence (whole entry): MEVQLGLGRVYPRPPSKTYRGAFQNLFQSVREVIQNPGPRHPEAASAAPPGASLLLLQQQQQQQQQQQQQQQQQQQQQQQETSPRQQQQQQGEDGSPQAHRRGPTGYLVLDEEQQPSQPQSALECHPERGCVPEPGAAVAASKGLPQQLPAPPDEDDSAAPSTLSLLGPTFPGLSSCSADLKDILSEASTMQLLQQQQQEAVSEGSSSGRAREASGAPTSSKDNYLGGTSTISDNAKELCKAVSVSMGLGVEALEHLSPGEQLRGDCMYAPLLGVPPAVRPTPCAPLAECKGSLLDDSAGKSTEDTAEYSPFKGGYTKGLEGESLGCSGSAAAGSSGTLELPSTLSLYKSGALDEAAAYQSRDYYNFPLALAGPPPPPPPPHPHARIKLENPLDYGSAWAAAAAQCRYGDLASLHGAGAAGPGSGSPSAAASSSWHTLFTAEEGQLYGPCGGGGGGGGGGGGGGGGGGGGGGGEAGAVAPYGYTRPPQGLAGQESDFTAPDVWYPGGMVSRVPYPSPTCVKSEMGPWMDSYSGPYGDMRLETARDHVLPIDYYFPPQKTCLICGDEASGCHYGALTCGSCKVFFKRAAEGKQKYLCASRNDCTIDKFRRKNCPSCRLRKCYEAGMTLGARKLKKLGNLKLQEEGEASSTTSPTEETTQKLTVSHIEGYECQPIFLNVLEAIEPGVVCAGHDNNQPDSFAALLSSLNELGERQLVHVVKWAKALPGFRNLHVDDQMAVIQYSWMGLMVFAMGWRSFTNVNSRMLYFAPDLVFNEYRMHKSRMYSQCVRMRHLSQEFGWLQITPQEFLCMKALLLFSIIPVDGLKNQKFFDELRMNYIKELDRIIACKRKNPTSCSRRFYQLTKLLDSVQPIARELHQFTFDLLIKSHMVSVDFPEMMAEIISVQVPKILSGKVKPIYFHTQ
Put plainly: Induction of AR degradation in human HeLa cells assessed as maximum efficacy at 100 nM relative to control. The test is classed as cell-based.

Test [3] concerns the target T2, Estrogen receptor (Homo sapiens, UniProt P03372).
T2 sequence (P03372 whole entry): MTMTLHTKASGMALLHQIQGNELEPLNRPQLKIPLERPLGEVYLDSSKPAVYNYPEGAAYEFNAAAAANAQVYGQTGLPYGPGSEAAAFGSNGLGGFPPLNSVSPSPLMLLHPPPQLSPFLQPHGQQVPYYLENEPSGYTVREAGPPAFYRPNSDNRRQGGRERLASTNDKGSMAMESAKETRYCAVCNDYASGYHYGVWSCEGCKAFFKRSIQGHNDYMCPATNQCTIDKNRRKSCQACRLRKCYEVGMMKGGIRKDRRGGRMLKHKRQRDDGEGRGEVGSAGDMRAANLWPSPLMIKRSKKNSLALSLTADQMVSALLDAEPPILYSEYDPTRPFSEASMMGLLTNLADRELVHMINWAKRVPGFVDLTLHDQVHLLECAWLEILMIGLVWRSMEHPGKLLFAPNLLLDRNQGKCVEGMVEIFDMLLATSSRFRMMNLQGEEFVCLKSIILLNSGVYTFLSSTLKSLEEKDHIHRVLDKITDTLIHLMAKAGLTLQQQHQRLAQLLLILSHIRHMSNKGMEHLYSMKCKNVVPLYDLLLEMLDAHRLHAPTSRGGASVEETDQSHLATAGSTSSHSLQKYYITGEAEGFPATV
The test is described as follows: Induction of estrogen receptor degradation in human MCF7. The test is classed as cell-based.

In test [4] the target is T3, Estrogen receptor (Homo sapiens) (UniProt P03372).
T3 sequence (whole entry): T2 sequence (P03372 whole entry)
The test is described as follows: Induction of estrogen receptor degradation in human MCF7 cells assessed as maximum efficacy relative to control. The test is classed as cell-based.

For test [5], the target named is T1, Androgen receptor (Homo sapiens). The test is described as follows: Induction of AR degradation in human HeLa cells assessed as maximum efficacy at 3 nM relative to control. It is filed as cell-based.
In test [6] the test system is MV4-11. The test is described as follows: Antiproliferative activity against human MV4-11 cells assessed as growth inhibition. The test is classed as functional, cell-based.
Test [7] deals with T4, von Hippel-Lindau disease tumor suppressor/SWI/SNF-related matrix-associated actin-dependent regulator of chromatin subfamily A member 2 (Homo sapiens, UniProt P51531+P40337). Put plainly: PROTAC activity at SMARCA2/VHL in human MV4-11 cells assessed as degradation of SMARCA2 by Western blot analysis. The test is classed as cell-based.
Target sequence in this assay (P51531 whole entry): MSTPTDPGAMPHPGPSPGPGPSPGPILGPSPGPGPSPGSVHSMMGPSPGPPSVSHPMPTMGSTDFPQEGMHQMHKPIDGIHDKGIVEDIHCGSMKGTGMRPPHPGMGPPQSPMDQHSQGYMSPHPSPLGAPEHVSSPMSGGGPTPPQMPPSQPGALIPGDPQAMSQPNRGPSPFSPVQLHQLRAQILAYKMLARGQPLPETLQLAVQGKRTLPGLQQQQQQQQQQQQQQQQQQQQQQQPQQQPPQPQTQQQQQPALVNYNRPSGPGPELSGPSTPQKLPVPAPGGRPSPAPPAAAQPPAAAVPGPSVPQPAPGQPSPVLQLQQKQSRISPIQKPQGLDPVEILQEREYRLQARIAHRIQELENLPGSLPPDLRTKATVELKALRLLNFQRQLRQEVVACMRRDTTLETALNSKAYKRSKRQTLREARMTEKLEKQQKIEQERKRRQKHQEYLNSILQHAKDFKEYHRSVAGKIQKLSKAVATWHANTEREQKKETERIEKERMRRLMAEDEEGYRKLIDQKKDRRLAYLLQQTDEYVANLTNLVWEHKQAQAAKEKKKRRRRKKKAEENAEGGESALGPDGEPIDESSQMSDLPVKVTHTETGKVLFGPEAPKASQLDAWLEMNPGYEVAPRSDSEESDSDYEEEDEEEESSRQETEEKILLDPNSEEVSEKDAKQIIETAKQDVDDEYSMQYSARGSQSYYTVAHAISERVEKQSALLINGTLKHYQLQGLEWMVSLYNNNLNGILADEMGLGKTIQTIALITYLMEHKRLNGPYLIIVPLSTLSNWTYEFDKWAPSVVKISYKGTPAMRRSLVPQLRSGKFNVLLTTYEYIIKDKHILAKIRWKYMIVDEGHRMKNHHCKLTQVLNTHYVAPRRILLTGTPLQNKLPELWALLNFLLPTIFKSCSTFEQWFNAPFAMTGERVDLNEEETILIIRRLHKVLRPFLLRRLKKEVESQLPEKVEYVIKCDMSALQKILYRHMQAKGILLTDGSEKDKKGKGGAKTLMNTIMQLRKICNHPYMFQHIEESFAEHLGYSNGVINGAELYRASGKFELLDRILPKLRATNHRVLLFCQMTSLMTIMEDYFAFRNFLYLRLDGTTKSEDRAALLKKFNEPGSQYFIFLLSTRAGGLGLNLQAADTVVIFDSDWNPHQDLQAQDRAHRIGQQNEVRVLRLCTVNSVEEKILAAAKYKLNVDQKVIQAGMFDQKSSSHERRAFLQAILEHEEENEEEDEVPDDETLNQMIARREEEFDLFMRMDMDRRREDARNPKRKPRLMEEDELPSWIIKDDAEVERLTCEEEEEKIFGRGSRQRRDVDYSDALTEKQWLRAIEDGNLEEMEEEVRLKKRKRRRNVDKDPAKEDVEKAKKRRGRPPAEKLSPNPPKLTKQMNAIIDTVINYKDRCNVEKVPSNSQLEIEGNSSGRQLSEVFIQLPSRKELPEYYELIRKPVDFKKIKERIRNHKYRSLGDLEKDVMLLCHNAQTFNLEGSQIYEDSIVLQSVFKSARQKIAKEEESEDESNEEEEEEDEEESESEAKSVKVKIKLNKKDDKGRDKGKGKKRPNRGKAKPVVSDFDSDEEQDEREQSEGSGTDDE
Target sequence in this assay (P40337 whole entry): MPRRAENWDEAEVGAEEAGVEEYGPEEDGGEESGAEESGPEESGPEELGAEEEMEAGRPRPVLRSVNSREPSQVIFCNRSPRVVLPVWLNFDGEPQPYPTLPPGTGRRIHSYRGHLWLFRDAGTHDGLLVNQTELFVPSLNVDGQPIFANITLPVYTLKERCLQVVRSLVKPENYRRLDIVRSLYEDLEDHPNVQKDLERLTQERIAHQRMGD
Test [8] concerns the target T4, von Hippel-Lindau disease tumor suppressor/SWI/SNF-related matrix-associated actin-dependent regulator of chromatin subfamily A member 2. Put plainly: PROTAC activity at SMARCA2/VHL in human MV4-11 cells assessed as degradation of SMARCA2 measured for 24 hrs by Western blot analysis. It is filed as cell-based.
Target sequence in this assay (P51531 whole entry): as the sequence (P51531 whole entry) above
Target sequence in this assay (P40337 whole entry): as the sequence (P40337 whole entry) above
The target of test [9] is von Hippel-Lindau disease tumor suppressor/SWI/SNF-related matrix-associated actin-dependent regulator of chromatin subfamily A member 4 (Homo sapiens, UniProt P51532+P40337). Put plainly: PROTAC activity at SMARCA4/VHL in human MV4-11 cells assessed as degradation of SMARCA4 measured for 24 hrs by Western blot analysis. It is filed as cell-based.
The target of test [10] is T4, von Hippel-Lindau disease tumor suppressor/SWI/SNF-related matrix-associated actin-dependent regulator of chromatin subfamily A member 2. Put plainly: PROTAC activity at SMARCA2/VHL in human MV4-11 cells assessed as degradation of SMARCA2 measured for 24 hrs by Western blot analysis relative to control. The test is classed as cell-based.
Target sequence in this assay (P40337 whole entry, looked up): as the sequence (P40337 whole entry) above
Target sequence in this assay (P51531 whole entry, looked up): as the sequence (P51531 whole entry) above
For test [11], the target named is T5, von Hippel-Lindau disease tumor suppressor/Bromodomain-containing protein 4 (Homo sapiens, UniProt O60885+P40337). Put plainly: Protac activity at VHL/BRD4 in human HeLa cells assessed as BRD4 degradation at 1 uM by Western blot analysis relative to control. It is filed as cell-based.
For test [12], the target named is Bromodomain-containing protein 4 (Homo sapiens) (UniProt O60885). The test is described as follows: Induction of BRD4 degradation in human HeLa cells assessed as maximum efficacy at 1 uM relative to control. It is filed as cell-based.
For test [13], the target named is T5, von Hippel-Lindau disease tumor suppressor/Bromodomain-containing protein 4. The test is described as follows: Protac activity at VHL/BRD4 in human HeLa cells assessed as BRD4 degradation by Western blot analysis relative to control. The test is classed as cell-based.
Test [14] has the same target. The test is described as follows: Protac activity at BRD4/VHL (unknown origin) assessed as maximum efficacy relative to control.
Test [15] deals with von Hippel-Lindau disease tumor suppressor/Steroid hormone receptor ERR1 (Homo sapiens) (UniProt P11474+P40337). Put plainly: Protac activity at VHL/ERRalpha in human MCF7 cells assessed as maximum efficacy relative to control. The test is classed as cell-based.
The target in test [16] is T6, von Hippel-Lindau disease tumor suppressor/Estrogen receptor (Homo sapiens, UniProt P03372+P40337). Put plainly: Protac activity at ER/VHL (unknown origin) degradation in human MCF7 cells by immunoblotting analysis. The test is classed as cell-based.
Target sequence in this assay (P40337 whole entry, one chain of several): as the sequence (P40337 whole entry) above
Test [17] deals with T6, von Hippel-Lindau disease tumor suppressor/Estrogen receptor. Put plainly: Protac activity at ER/VHL (unknown origin) degradation in human MCF7 cells assessed as maximum efficacy by immunoblotting analysis relative to control. It is filed as cell-based.
Target sequence in this assay (P40337 whole entry, looked up, one chain of several): as the sequence (P40337 whole entry) above
For test [18], the target named is T5, von Hippel-Lindau disease tumor suppressor/Bromodomain-containing protein 4. Put plainly: Protac activity at BRD4/VHL (unknown origin).
Test [19] has as its target T7, Bromodomain-containing protein 2 (Homo sapiens, UniProt P25440). The test is described as follows: Induction of BRD2 degradation (unknown origin).
Target sequence in this assay (P25440 whole entry): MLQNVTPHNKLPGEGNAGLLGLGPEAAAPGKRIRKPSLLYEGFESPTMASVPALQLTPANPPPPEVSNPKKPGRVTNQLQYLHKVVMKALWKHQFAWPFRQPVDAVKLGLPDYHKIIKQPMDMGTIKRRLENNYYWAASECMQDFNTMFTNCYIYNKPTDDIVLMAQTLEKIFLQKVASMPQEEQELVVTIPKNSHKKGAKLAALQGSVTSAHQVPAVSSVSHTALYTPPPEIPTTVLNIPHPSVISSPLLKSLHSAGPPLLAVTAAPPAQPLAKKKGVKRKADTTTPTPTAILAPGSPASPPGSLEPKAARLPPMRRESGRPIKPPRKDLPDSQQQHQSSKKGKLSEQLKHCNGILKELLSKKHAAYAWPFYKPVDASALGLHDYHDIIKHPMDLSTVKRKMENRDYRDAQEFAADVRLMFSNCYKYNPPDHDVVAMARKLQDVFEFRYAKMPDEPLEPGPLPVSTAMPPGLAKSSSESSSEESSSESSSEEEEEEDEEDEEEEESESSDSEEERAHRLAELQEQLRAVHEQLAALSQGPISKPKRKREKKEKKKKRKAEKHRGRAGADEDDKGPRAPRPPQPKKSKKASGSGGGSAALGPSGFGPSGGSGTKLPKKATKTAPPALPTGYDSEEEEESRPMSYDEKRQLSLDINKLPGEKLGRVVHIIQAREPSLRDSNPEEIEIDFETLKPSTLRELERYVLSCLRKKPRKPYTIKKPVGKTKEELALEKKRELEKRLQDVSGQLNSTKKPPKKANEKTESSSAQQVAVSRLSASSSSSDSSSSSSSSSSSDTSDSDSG
The target in test [20] is T7, Bromodomain-containing protein 2. Put plainly: Induction of BRD2 degradation (unknown origin) relative to control.
Target sequence in this assay (P25440 whole entry, looked up): as the sequence (P25440 whole entry) above
For test [21], the target named is T8, Androgen receptor (Homo sapiens, UniProt P10275).
T8 sequence (P10275 whole entry): T1 sequence (whole entry)
Put plainly: Induction of AR degradation in human HeLa cells. It is filed as cell-based.

T5 sequence (P40337 whole entry, looked up, other chains not shown): as the sequence (P40337 whole entry) above
von Hippel-Lindau disease tumor suppressor/Steroid hormone receptor ERR1 (Homo sapiens), sequence (P11474 whole entry, looked up): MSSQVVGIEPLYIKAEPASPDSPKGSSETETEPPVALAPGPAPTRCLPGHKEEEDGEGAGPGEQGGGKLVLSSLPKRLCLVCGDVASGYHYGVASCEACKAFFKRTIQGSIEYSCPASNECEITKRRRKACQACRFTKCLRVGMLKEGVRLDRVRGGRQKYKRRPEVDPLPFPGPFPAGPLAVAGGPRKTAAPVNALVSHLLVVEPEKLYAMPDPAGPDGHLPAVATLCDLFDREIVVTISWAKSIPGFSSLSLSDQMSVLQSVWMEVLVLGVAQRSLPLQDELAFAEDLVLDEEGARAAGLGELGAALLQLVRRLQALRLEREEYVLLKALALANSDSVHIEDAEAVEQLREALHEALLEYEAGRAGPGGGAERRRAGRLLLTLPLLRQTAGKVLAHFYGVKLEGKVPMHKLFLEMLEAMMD
von Hippel-Lindau disease tumor suppressor/Steroid hormone receptor ERR1 (Homo sapiens), sequence (P40337 whole entry, looked up): as the sequence (P40337 whole entry) above

Take `COc1cc(C(=O)O)ccc1NC(=O)[C@@H]1N[C@@H](CC(C)(C)C)[C@](C#N)(c2ccc(Cl)cc2F)[C@H]1c1cccc(Cl)c1F` [IDASANUTLIN]: in test [1], the Activity worked out at 64%.

For `CC/C(=C(\c1ccc(O)cc1)c1ccc(OCCN(C)C(=O)COCCOCCOCCOc2ccc(O[C@H]3C[C@@H](C(=O)N[C@@H]4CCCc5ccccc54)N(C(=O)[C@@H](NC(=O)[C@H](C)NC)C4CCCCC4)C3)cc2)cc1)c1ccccc1`, the maximum response (Emax) was greater than 70% in test [2] and greater than 80% in test [4]. In test [3], this molecule registered a DC50 of 1000 nM.

With `CC/C(=C(\c1ccc(O)cc1)c1ccc(OCCN(C)C(=O)COCCOCCOCCOc2cccc(C(=O)c3csc([C@@H]4CCCN4C(=O)[C@@H](NC(=O)[C@H](C)NC)C4CCCCC4)n3)c2)cc1)c1ccccc1`, the maximum response (Emax) in [5] was 50%; in [2], greater than 70%; in [4], greater than 70%. The molecule further gave a DC50 in test [3] of 1000 nM.

`Cc1ncsc1-c1ccc(CNC(=O)[C@@H]2C[C@@H](O)CN2C(=O)[C@@H](NC(=O)C2(F)CC2)C(C)(C)C)c(OCCOc2ccc(CN3CCN(c4cc(-c5ccccc5O)nnc4N)CC3)cc2)c1`: in test [6], the IC50 came to 28 nM. Moreover, the DC50 came to 6 nM in test [7], 6 nM in test [8] and 11 nM in test [9]. Further, in test [10], the Emax came to 100%.

For the molecule `Cc1ncsc1-c1ccc(CNC(=O)[C@@H]2C[C@@H](O)CN2C(=O)[C@@H](NC(=O)COCCOCCOCCNC(=O)C[C@@H]2N=C(c3ccc(Cl)cc3)c3c(sc(C)c3C)-n3c(C)nnc32)C(C)(C)C)cc1`, the Activity in test [11] worked out at 90%. For the same molecule, the Emax in [12], in test [13] and in [14] was greater than 90% in each case.

Regarding `COc1cc(/C=C2\SC(=O)N(CCOCCC(=O)N[C@H](C(=O)N3C[C@H](O)C[C@H]3C(=O)NCc3ccc(-c4scnc4C)cc3)C(C)(C)C)C2=O)ccc1Oc1ccc(C#N)cc1C(F)(F)F`, the Emax in test [15] was greater than 86%; in test [17], 86%. This molecule also gave a DC50 in test [16] of 100 nM.

Turning to `CC(=O)N[C@H](C(=O)N1C[C@@H](O)C[C@H]1C(=O)NCc1ccc(-c2scnc2C)cc1)C(C)(C)SCCCCCNC(=O)C[C@@H]1N=C(c2ccc(Cl)cc2)c2c(sc(C)c2C)-n2c(C)nnc21`, the DC50 in [18] amounted to 10 nM. Further, in test [14], the maximal response (Emax) was greater than 90%.

`Cc1ncsc1-c1ccc([C@H](C)NC(=O)[C@@H]2C[C@@H](O)CN2C(=O)[C@@H](NC(=O)COCCCOCCNC(=O)C[C@@H]2N=C(c3ccc(Cl)cc3)c3c(sc(C)c3C)-n3c(C)nnc32)C(C)(C)C)cc1` registered a DC50 in [19] of less than 1 nM. For the same molecule, the Emax was greater than 90% in [20] and greater than 50% in [14].

`COc1ccc(C2=N[C@H](c3ccc(Cl)cc3)[C@H](c3ccc(Cl)cc3)N2C(=O)N2CCN(CC(=O)NCCOCCOCCOCC(=O)Nc3ccc(OC[C@](C)(O)C(=O)Nc4ccc([N+](=O)[O-])c(C(F)(F)F)c4)cc3)C(=O)C2)c(OC(C)C)c1` returned a DC50 in [21] of 10000 nM.

Source of the values: ChEMBL document CHEMBL5244258, “PROTACs: New method to degrade transcription regulating proteins” (Eur J Med Chem, 2020).
